# Source: patent publication US20070105792A1, “Administration Of DNA Methylation Inhibitors For Treating Epigenetic Diseases” (priority 2005, published 2007)
# Experiment: Chemical stability of decitabine in reconstituted and diluted aqueous infusion fluid
# Conditions: for pH: after preparation of the infusion; for Average degradation rate / Maximum degradation (% peak area): 0.1-1 mg/mL; for Average degradation rate: estimate assuming linearity
# [1] = 0.1 mg/mL, 0.9% NaCl, Experiment 1: 2-8° C. one hour then room temperature, at 0 h
# [2] = 0.1 mg/mL, 0.9% NaCl, Experiment 1: 2-8° C. one hour then room temperature, at 1 h
# [3] = 0.1 mg/mL, 0.9% NaCl, Experiment 1: 2-8° C. one hour then room temperature, at 2 h
# [4] = 0.1 mg/mL, 0.9% NaCl, Experiment 1: 2-8° C. one hour then room temperature, at 3 h
# [5] = 0.1 mg/mL, 0.9% NaCl, Experiment 1: 2-8° C. one hour then room temperature, at 4 h
# [6] = 0.1 mg/mL, 0.9% NaCl, Experiment 2: 2-8° C. ten hours then room temperature, at 0 h
# [7] = 0.1 mg/mL, 0.9% NaCl, Experiment 2: 2-8° C. ten hours then room temperature, at 10 h
# [8] = 0.1 mg/mL, 0.9% NaCl, Experiment 2: 2-8° C. ten hours then room temperature, at 11 h
# [9] = 0.1 mg/mL, 0.9% NaCl, Experiment 2: 2-8° C. ten hours then room temperature, at 12 h
# [10] = 0.1 mg/mL, 5% Dextrose, Experiment 1: 2-8° C. one hour then room temperature, at 0 h
# [11] = 0.1 mg/mL, 5% Dextrose, Experiment 1: 2-8° C. one hour then room temperature, at 1 h
# [12] = 0.1 mg/mL, 5% Dextrose, Experiment 1: 2-8° C. one hour then room temperature, at 2 h
# [13] = 0.1 mg/mL, 5% Dextrose, Experiment 1: 2-8° C. one hour then room temperature, at 3 h
# [14] = 0.1 mg/mL, 5% Dextrose, Experiment 1: 2-8° C. one hour then room temperature, at 4 h
# [15] = 0.1 mg/mL, 5% Dextrose, Experiment 2: 2-8° C. ten hours then room temperature, at 0 h
# [16] = 0.1 mg/mL, 5% Dextrose, Experiment 2: 2-8° C. ten hours then room temperature, at 10 h
# [17] = 0.1 mg/mL, 5% Dextrose, Experiment 2: 2-8° C. ten hours then room temperature, at 11 h
# [18] = 0.1 mg/mL, 5% Dextrose, Experiment 2: 2-8° C. ten hours then room temperature, at 12 h
# [19] = 0.1 mg/mL, Lactated Ringer's, Experiment 1: 2-8° C. one hour then room temperature, at 0 h
# [20] = 0.1 mg/mL, Lactated Ringer's, Experiment 1: 2-8° C. one hour then room temperature, at 1 h
# [21] = 0.1 mg/mL, Lactated Ringer's, Experiment 1: 2-8° C. one hour then room temperature, at 2 h
# [22] = 0.1 mg/mL, Lactated Ringer's, Experiment 1: 2-8° C. one hour then room temperature, at 3 h
# [23] = 0.1 mg/mL, Lactated Ringer's, Experiment 1: 2-8° C. one hour then room temperature, at 4 h
# [24] = 0.1 mg/mL, Lactated Ringer's, Experiment 2: 2-8° C. ten hours then room temperature, at 0 h
# [25] = 0.1 mg/mL, Lactated Ringer's, Experiment 2: 2-8° C. ten hours then room temperature, at 10 h
# [26] = 0.1 mg/mL, Lactated Ringer's, Experiment 2: 2-8° C. ten hours then room temperature, at 11 h
# [27] = 0.1 mg/mL, Lactated Ringer's, Experiment 2: 2-8° C. ten hours then room temperature, at 12 h
# [28] = about 1.0 mg/mL, 0.9% NaCl, Experiment 1: 2-8° C. one hour then room temperature, at 0 h
# [29] = about 1.0 mg/mL, 0.9% NaCl, Experiment 1: 2-8° C. one hour then room temperature, at 1 h
# [30] = about 1.0 mg/mL, 0.9% NaCl, Experiment 1: 2-8° C. one hour then room temperature, at 2 h
# [31] = about 1.0 mg/mL, 0.9% NaCl, Experiment 1: 2-8° C. one hour then room temperature, at 3 h
# [32] = about 1.0 mg/mL, 0.9% NaCl, Experiment 1: 2-8° C. one hour then room temperature, at 4 h
# [33] = about 1.0 mg/mL, 0.9% NaCl, Experiment 2: 2-8° C. ten hours then room temperature, at 0 h
# [34] = about 1.0 mg/mL, 0.9% NaCl, Experiment 2: 2-8° C. ten hours then room temperature, at 10 h
# [35] = about 1.0 mg/mL, 0.9% NaCl, Experiment 2: 2-8° C. ten hours then room temperature, at 11 h
# [36] = about 1.0 mg/mL, 0.9% NaCl, Experiment 2: 2-8° C. ten hours then room temperature, at 12 h
# [37] = about 1.0 mg/mL, 5% Dextrose, Experiment 1: 2-8° C. one hour then room temperature, at 0 h
# [38] = about 1.0 mg/mL, 5% Dextrose, Experiment 1: 2-8° C. one hour then room temperature, at 1 h
# [39] = about 1.0 mg/mL, 5% Dextrose, Experiment 1: 2-8° C. one hour then room temperature, at 2 h
# [40] = about 1.0 mg/mL, 5% Dextrose, Experiment 1: 2-8° C. one hour then room temperature, at 3 h
# [41] = about 1.0 mg/mL, 5% Dextrose, Experiment 1: 2-8° C. one hour then room temperature, at 4 h
# [42] = about 1.0 mg/mL, 5% Dextrose, Experiment 2: 2-8° C. ten hours then room temperature, at 0 h
# [43] = about 1.0 mg/mL, 5% Dextrose, Experiment 2: 2-8° C. ten hours then room temperature, at 10 h
# [44] = about 1.0 mg/mL, 5% Dextrose, Experiment 2: 2-8° C. ten hours then room temperature, at 11 h
# [45] = about 1.0 mg/mL, 5% Dextrose, Experiment 2: 2-8° C. ten hours then room temperature, at 12 h
# [46] = about 1.0 mg/mL, Lactated Ringer's, Experiment 1: 2-8° C. one hour then room temperature, at 0 h
# [47] = about 1.0 mg/mL, Lactated Ringer's, Experiment 1: 2-8° C. one hour then room temperature, at 1 h
# [48] = about 1.0 mg/mL, Lactated Ringer's, Experiment 1: 2-8° C. one hour then room temperature, at 2 h
# [49] = about 1.0 mg/mL, Lactated Ringer's, Experiment 1: 2-8° C. one hour then room temperature, at 3 h
# [50] = about 1.0 mg/mL, Lactated Ringer's, Experiment 1: 2-8° C. one hour then room temperature, at 4 h
# [51] = about 1.0 mg/mL, Lactated Ringer's, Experiment 2: 2-8° C. ten hours then room temperature, at 0 h
# [52] = about 1.0 mg/mL, Lactated Ringer's, Experiment 2: 2-8° C. ten hours then room temperature, at 10 h
# [53] = about 1.0 mg/mL, Lactated Ringer's, Experiment 2: 2-8° C. ten hours then room temperature, at 11 h
# [54] = about 1.0 mg/mL, Lactated Ringer's, Experiment 2: 2-8° C. ten hours then room temperature, at 12 h
structure (smiles),measurement,setting,value
"Nc1ncn([C@H]2C[C@H](O)[C@@H](CO)O2)c(=O)n1 [Decitabine, 5-aza-2′-deoxycytidine]",Decitabine Content (%),[1],97.5%
same,Total Impurities (%),[1],(2.5%)
same,Decitabine Content (%),[2],96.9%
same,Total Impurities (%),[2],(3.2%)
same,Decitabine Content (%),[3],95.7%
same,Total Impurities (%),[3],(4.3%)
same,Decitabine Content (%),[4],94.1%
same,Total Impurities (%),[4],(6.0%)
same,Decitabine Content (%),[5],92.5%
same,Total Impurities (%),[5],(7.7%)
same,Decitabine Content (%),[6],97.8%
same,Total Impurities (%),[6],(2.2%)
same,Decitabine Content (%),[7],93.4%
same,Total Impurities (%),[7],(6.7%)
same,Decitabine Content (%),[8],92.3%
same,Total Impurities (%),[8],(7.7%)
same,Decitabine Content (%),[9],90.8%
same,Total Impurities (%),[9],(9.2%)
same,pH,"0.1 mg/mL, 0.9% NaCl",6.7
same,Decitabine Content (%),[10],97.4%
same,Total Impurities (%),[10],(2.6%)
same,Decitabine Content (%),[11],97.2%
same,Total Impurities (%),[11],(2.7%)
same,Decitabine Content (%),[12],96.4%
same,Total Impurities (%),[12],(3.6%)
same,Decitabine Content (%),[13],94.9%
same,Total Impurities (%),[13],(5.1%)
same,Decitabine Content (%),[14],93.6%
same,Total Impurities (%),[14],(6.4%)
same,Decitabine Content (%),[15],98.2%
same,Total Impurities (%),[15],(1.9%)
same,Decitabine Content (%),[16],94.9%
same,Total Impurities (%),[16],(5.2%)
same,Decitabine Content (%),[17],94.5%
same,Total Impurities (%),[17],(5.6%)
same,Decitabine Content (%),[18],93.3%
same,Total Impurities (%),[18],(6.7%)
same,pH,"0.1 mg/mL, 5% Dextrose",6.9
same,Decitabine Content (%),[19],98.3%
same,Total Impurities (%),[19],(1.7%)
same,Decitabine Content (%),[20],98.1%
same,Total Impurities (%),[20],(1.9%)
same,Decitabine Content (%),[21],97.0%
same,Total Impurities (%),[21],(3.0%)
same,Decitabine Content (%),[22],95.9%
same,Total Impurities (%),[22],(4.1%)
same,Decitabine Content (%),[23],94.9%
same,Total Impurities (%),[23],(5.2%)
same,Decitabine Content (%),[24],98.0%
same,Total Impurities (%),[24],(2.1%)
same,Decitabine Content (%),[25],93.4%
same,Total Impurities (%),[25],(6.7%)
same,Decitabine Content (%),[26],92.6%
same,Total Impurities (%),[26],(7.4%)
same,Decitabine Content (%),[27],91.8%
same,Total Impurities (%),[27],(8.3%)
same,pH,"0.1 mg/mL, Lactated Ringer's",6.7
same,Average degradation rate,@ 4° C.,0.40 %/hr
same,Average degradation rate,@ Room Temperature,2.44 %/hr
same,Maximum degradation (% peak area),S1 (6 hr stored @4° C. + 3 hr @ RT during infusion),9.72 % peak area
same,Maximum degradation (% peak area),S2 (7 hr stored @4° C. + 3 hr @ RT during infusion),10.12 % peak area
same,Maximum degradation (% peak area),S3 (7 hr stored @4° C. + 2 hr @ RT during infusion),7.68 % peak area
same,Maximum degradation (% peak area),S4 (8 hr stored @4° C. + 3 hr @ RT during infusion),10.52 % peak area
same,Maximum degradation (% peak area),S5 (8 hr stored @4° C. + 2 hr @ RT during infusion),8.08 % peak area
same,Maximum degradation (% peak area),S6 (9 hr stored @4° C. + 2 hr @ RT during infusion),8.48 % peak area
same,Maximum degradation (% peak area),S7 (10 hr stored @4° C. + 2 hr @ RT during infusion),8.88 % peak area
same,pH deviation from neutral pH after preparation of the infusion,Table 1 and Table 2 solutions,≤ 0.3 pH units
same,Decitabine Content (%),[28],98.0%
same,Total Impurities (%),[28],(2.1%)
same,Decitabine Content (%),[29],96.8%
same,Total Impurities (%),[29],(3.3%)
same,Decitabine Content (%),[30],94.8%
same,Total Impurities (%),[30],(5.2%)
same,Decitabine Content (%),[31],92.8%
same,Total Impurities (%),[31],(7.3%)
same,Decitabine Content (%),[32],91.1%
same,Total Impurities (%),[32],(9.0%)
same,Decitabine Content (%),[33],97.4%
same,Total Impurities (%),[33],(2.7%)
same,Decitabine Content (%),[34],93.4%
same,Total Impurities (%),[34],(6.7%)
same,Decitabine Content (%),[35],92.5%
same,Total Impurities (%),[35],(7.6%)
same,Decitabine Content (%),[36],90.8%
same,Total Impurities (%),[36],(9.2%)
same,pH,"about 1.0 mg/mL, 0.9% NaCl",6.7
same,Decitabine Content (%),[37],98.0%
same,Total Impurities (%),[37],(2.0%)
same,Decitabine Content (%),[38],97.0%
same,Total Impurities (%),[38],(3.1%)
same,Decitabine Content (%),[39],95.6%
same,Total Impurities (%),[39],(4.4%)
same,Decitabine Content (%),[40],93.7%
same,Total Impurities (%),[40],(6.4%)
same,Decitabine Content (%),[41],91.9%
same,Total Impurities (%),[41],(8.1%)
same,Decitabine Content (%),[42],97.7%
same,Total Impurities (%),[42],(2.4%)
same,Decitabine Content (%),[43],94.5%
same,Total Impurities (%),[43],(5.5%)
same,Decitabine Content (%),[44],93.9%
same,Total Impurities (%),[44],(6.1%)
same,Decitabine Content (%),[45],93.0%
same,Total Impurities (%),[45],(7.1%)
same,pH,"about 1.0 mg/mL, 5% Dextrose",7.1
same,Decitabine Content (%),[46],98.1%
same,Total Impurities (%),[46],(2.0%)
same,Decitabine Content (%),[47],97.3%
same,Total Impurities (%),[47],(2.7%)
same,Decitabine Content (%),[48],96.2%
same,Total Impurities (%),[48],(3.8%)
same,Decitabine Content (%),[49],95.1%
same,Total Impurities (%),[49],(4.9%)
same,Decitabine Content (%),[50],93.7%
same,Total Impurities (%),[50],(6.4%)
same,Decitabine Content (%),[51],98.0%
same,Total Impurities (%),[51],(2.1%)
same,Decitabine Content (%),[52],94.1%
same,Total Impurities (%),[52],(5.9%)
same,Decitabine Content (%),[53],93.3%
same,Total Impurities (%),[53],(6.8%)
same,Decitabine Content (%),[54],91.8%
same,Total Impurities (%),[54],(8.2%)
same,pH,"about 1.0 mg/mL, Lactated Ringer's",6.8
same,Visual inspection of solutions,all reconstituted and diluted solutions,clear and colorless
same,Drug content in the infusion solution during infusion,infusions prepared and stored as instructed,above 90%
